From ChEMBL document CHEMBL5055643, “Sophoraflavanone G Resensitizes ABCG2-Overexpressing Multidrug-Resistant Non-Small-Cell Lung Cancer Cells to Chemotherapeutic Drugs” (J Nat Prod, 2021)

Experiments:
Type in all cases: functional
KB 3-1 [1] = experiment: Chemo-sensitizing activity against human KB 3-1 cells assessed as reversal fold at 1 uM measured after 72 hrs in presence of paclitaxel by CCK8 assay relative to control
OVCAR-8 [2] = experiment: Chemo-sensitizing activity against human OVCAR-8 cells assessed as reversal fold at 1 uM measured after 72 hrs in presence of vincristine by CCK8 assay relative to control
HEK293 [3] = experiment: Chemo-sensitizing activity against human HEK293 cells assessed as reversal fold at 1 uM measured after 72 hrs in presence of vincristine by CCK8 assay relative to control
KB 3-1 [4] = experiment: Chemo-sensitizing activity against human KB 3-1 cells assessed as reversal fold at 1 uM measured after 72 hrs in presence of vincristine by CCK8 assay relative to control
NCI/ADR-RES [5] = experiment: Chemo-sensitizing activity against ABCB1-overexpressing human NCI/ADR-RES cells assessed as reversal fold at 1 uM measured after 72 hrs in presence of colchicine by CCK8 assay relative to control
KB-V1 [6] = experiment: Chemo-sensitizing activity against ABCB1-overexpressing human KB-V1 cells assessed as reversal fold at 1 uM measured after 72 hrs in presence of vincristine by CCK8 assay relative to control
HEK293 [7] = experiment: Chemo-sensitizing activity against human HEK293 cells assessed as reversal fold at 1 uM measured after 72 hrs in presence of paclitaxel by CCK8 assay relative to control
KB-V1 [8] = experiment: Chemo-sensitizing activity against ABCB1-overexpressing human KB-V1 cells assessed as reversal fold at 1 uM measured after 72 hrs in presence of paclitaxel by CCK8 assay relative to control
OVCAR-8 [9] = experiment: Chemo-sensitizing activity against human OVCAR-8 cells assessed as reversal fold at 1 uM measured after 72 hrs in presence of paclitaxel by CCK8 assay relative to control
HEK293 [10] = experiment: Chemo-sensitizing activity against human HEK293 cells assessed as reversal fold at 1 uM measured after 72 hrs in presence of colchicine by CCK8 assay relative to control
HEK293 [11] = experiment: Chemo-sensitizing activity against ABCB1-overexpressing human HEK293/MDR19 cells assessed as reversal fold at 1 uM measured after 72 hrs in presence of vincristine by CCK8 assay relative to control
KB 3-1 [12] = experiment: Chemo-sensitizing activity against human KB 3-1 cells assessed as reversal fold at 1 uM measured after 72 hrs in presence of colchicine by CCK8 assay relative to control
OVCAR-8 [13] = experiment: Chemo-sensitizing activity against human OVCAR-8 cells assessed as reversal fold at 1 uM measured after 72 hrs in presence of colchicine by CCK8 assay relative to control
NCI/ADR-RES [14] = experiment: Chemo-sensitizing activity against ABCB1-overexpressing human NCI/ADR-RES cells assessed as reversal fold at 1 uM measured after 72 hrs in presence of vincristine by CCK8 assay relative to control
HEK293 [15] = experiment: Chemo-sensitizing activity against ABCB1-overexpressing human HEK293/MDR19 cells assessed as reversal fold at 1 uM measured after 72 hrs in presence of colchicine by CCK8 assay relative to control
NCI/ADR-RES [16] = experiment: Chemo-sensitizing activity against ABCB1-overexpressing human NCI/ADR-RES cells assessed as reversal fold at 1 uM measured after 72 hrs in presence of paclitaxel by CCK8 assay relative to control
HEK293 [17] = experiment: Chemo-sensitizing activity against ABCB1-overexpressing human HEK293/MDR19 cells assessed as reversal fold at 1 uM measured after 72 hrs in presence of paclitaxel by CCK8 assay relative to control
KB-V1 [18] = experiment: Chemo-sensitizing activity against ABCB1-oveexpressing human KB-V1 cells assessed as reversal fold at 1 uM measured after 72 hrs in presence of colchicine by CCK8 assay relative to control
NCI-H460 [19] = experiment: Chemo-sensitizing activity against mitoxantrone-selected ABCG2-overexpressing human NCI-H460/MX20 cells assessed as reversal fold at 1 uM measured after 72 hrs in presence of mitoxantrone by CCK8 assay relative to control
HEK293 [20] = experiment: Chemo-sensitizing activity against human HEK293 cells assessed as reversal fold at 1 uM measured after 72 hrs in presence of topotecan by CCK8 assay relative to control
NCI-H460 [21] = experiment: Chemo-sensitizing activity against human NCI-H460 cells assessed as reversal fold at 1 uM measured after 72 hrs in presence of topotecan by CCK8 assay relative to control
NCI-H460 [22] = experiment: Chemo-sensitizing activity against mitoxantrone-selected ABCG2-overexpressing human NCI-H460/MX20 cells assessed as reversal fold at 1 uM measured after 72 hrs in presence of topotecan by CCK8 assay relative to control
HEK293 [23] = experiment: Chemo-sensitizing activity against ABCG2-overexpressing human HEK293/482R cells assessed as reversal fold at 1 uM measured after 72 hrs in presence of mitoxatrone by CCK8 assay relative to control
A549 [24] = experiment: Chemo-sensitizing activity against becatecarin-selected ABCG2-overexpressing human A549/Bec150 cells assessed as reversal fold at 1 uM measured after 72 hrs in presence of SN-38 by CCK8 assay relative to control
NCI-H460 [25] = experiment: Chemo-sensitizing activity against human NCI-H460 cells assessed as reversal fold at 1 uM measured after 72 hrs in presence of mitoxantrone by CCK8 assay relative to control
HEK293 [26] = experiment: Chemo-sensitizing activity against human HEK293 cells assessed as reversal fold at 1 uM measured after 72 hrs in presence of SN-38 by CCK8 assay relative to control
A549 [27] = experiment: Chemo-sensitizing activity against becatecarin-selected ABCG2-overexpressing human A549/Bec150 cells assessed as reversal fold at 1 uM measured after 72 hrs in presence of topotecan by CCK8 assay relative to control
A549 [28] = experiment: Chemo-sensitizing activity against human A549 cells assessed as reversal fold at 1 uM measured after 72 hrs in presence of SN-38 by CCK8 assay relative to control
A549 [29] = experiment: Chemo-sensitizing activity against becatecarin-selected ABCG2-overexpressing human A549/Bec150 cells assessed as reversal fold at 1 uM measured after 72 hrs in presence of mitoxantrone by CCK8 assay relative to control
HEK293 [30] = experiment: Chemo-sensitizing activity against ABCG2-overexpressing human HEK293/482R cells assessed as reversal fold at 1 uM measured after 72 hrs in presence of SN-38 by CCK8 assay relative to control
A549 [31] = experiment: Chemo-sensitizing activity against human A549 cells assessed as reversal fold at 1 uM measured after 72 hrs in presence of topotecan by CCK8 assay relative to control
A549 [32] = experiment: Chemo-sensitizing activity against human A549 cells assessed as reversal fold at 1 uM measured after 72 hrs in presence of mitoxantrone by CCK8 assay relative to control
HEK293 [33] = experiment: Chemo-sensitizing activity against human HEK293 cells assessed as reversal fold at 1 uM measured after 72 hrs in presence of mitoxatrone by CCK8 assay relative to control
HEK293 [34] = experiment: Chemo-sensitizing activity against ABCG2-overexpressing human HEK293 cells assessed as reversal fold at 1 uM measured after 72 hrs in presence of topotecan by CCK8 assay relative to control
NCI-H460 [35] = experiment: Chemo-sensitizing activity against human NCI-H460 cells assessed as reversal fold at 1 uM measured after 72 hrs in presence of SN-38 by CCK8 assay relative to control
NCI-H460 [36] = experiment: Chemo-sensitizing activity against mitoxantrone-selected ABCG2-overexpressing human NCI-H460/MX20 cells assessed as reversal fold at 1 uM measured after 72 hrs in presence of SN-38 by CCK8 assay relative to control

COc1cc2c(cc1OC)CN(CCc1ccc(NC(=O)c3cc(OC)c(OC)cc3NC(=O)c3cnc4ccccc4c3)cc1)CC2 [TARIQUIDAR]
fold change (FC) (KB 3-1 [1]): 0.9
fold change (FC) (OVCAR-8 [2]): 1.3
fold change (FC) (HEK293 [3]): 1.5
fold change (FC) (KB 3-1 [4]): 1.1
fold change (FC) (NCI/ADR-RES [5]): 45
fold change (FC) (KB-V1 [6]): 786
fold change (FC) (HEK293 [7]): 1
fold change (FC) (KB-V1 [8]): 1281
fold change (FC) (OVCAR-8 [9]): 1
fold change (FC) (HEK293 [10]): 1
fold change (FC) (HEK293 [11]): 245.2
fold change (FC) (KB 3-1 [12]): 1.2
fold change (FC) (OVCAR-8 [13]): 1
fold change (FC) (NCI/ADR-RES [14]): 174
fold change (FC) (HEK293 [15]): 12.9
fold change (FC) (NCI/ADR-RES [16]): 1040
fold change (FC) (HEK293 [17]): 309
fold change (FC) (KB-V1 [18]): 50.7

COc1ccc2c3c([nH]c2c1)[C@H](CC(C)C)N1C(=O)[C@H](CCC(=O)OC(C)(C)C)NC(=O)[C@@H]1C3
fold change (FC) (NCI-H460 [19]): 18
fold change (FC) (HEK293 [20]): 0.9
fold change (FC) (NCI-H460 [21]): 2.7
fold change (FC) (NCI-H460 [22]): 22.6
fold change (FC) (HEK293 [23]): 11.9
fold change (FC) (A549 [24]): 13.2
fold change (FC) (NCI-H460 [25]): 1.7
fold change (FC) (HEK293 [26]): 1
fold change (FC) (A549 [27]): 9.1
fold change (FC) (A549 [28]): 1.6
fold change (FC) (A549 [29]): 14.9
fold change (FC) (HEK293 [30]): 24.1
fold change (FC) (A549 [31]): 1.7
fold change (FC) (A549 [32]): 2
fold change (FC) (HEK293 [33]): 1.1
fold change (FC) (HEK293 [34]): 5.8
fold change (FC) (NCI-H460 [35]): 3
fold change (FC) (NCI-H460 [36]): 20.6
